# Data as given in US10280159B2 (AbbVie Deutschland GmbH & Co. KG, priority 2015, dated 2019).
# Experiments:
# Format in all cases: cell-based
# [1] = target: T1, human S1PR5 (Homo sapiens, UniProt Q9H228); test: Intracellular Ca2+ release (FLIPR) agonist potency, S1P5; settings: recombinant CHO-K1 cells expressing human S1PR5, aequorin, Gq/i5; Calcium 5 FLIPR; read-out: S1P5 EC50 range
# T1 construct: host or cells: CHO-K1
# Outline: (§1)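 CHO-K1 cells recombinantly expressing the human S1P receptor plus aequorin and Gq/i5 were grown in F-12 Ham with 10% FBS. Agonist-induced intracellular Ca2+ release was read on a FLIPR Tetra. EC50 came from nonlinear fits of raw fluorescence normalized to the phospho-fingolimod reference curve.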
# [2] = target: T2, human S1PR1 (Homo sapiens, UniProt P21453); test: Intracellular Ca2+ release (FLIPR) agonist potency, S1P1; settings: recombinant CHO-K1 cells expressing human S1PR1, aequorin, Gq/i5; Calcium 5 FLIPR; read-out: S1P1 EC50
# T2 construct: host or cells: CHO-K1
# T2 sequence (P21453 whole entry): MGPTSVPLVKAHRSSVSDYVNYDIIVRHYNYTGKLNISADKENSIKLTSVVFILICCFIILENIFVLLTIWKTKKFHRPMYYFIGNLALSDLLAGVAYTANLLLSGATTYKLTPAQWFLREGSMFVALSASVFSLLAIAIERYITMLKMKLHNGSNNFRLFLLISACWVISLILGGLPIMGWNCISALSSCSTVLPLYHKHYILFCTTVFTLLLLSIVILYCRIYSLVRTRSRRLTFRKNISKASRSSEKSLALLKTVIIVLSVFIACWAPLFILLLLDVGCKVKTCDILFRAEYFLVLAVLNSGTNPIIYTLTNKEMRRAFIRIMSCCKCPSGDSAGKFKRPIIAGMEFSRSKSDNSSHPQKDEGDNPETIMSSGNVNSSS
# Outline: as §1
# [3] = target: T3, human S1PR4 (Homo sapiens, UniProt O95977); test: Intracellular Ca2+ release (FLIPR) agonist potency, S1P4; settings: recombinant CHO-K1 cells expressing human S1PR4, aequorin, Gq/i5; Calcium 5 FLIPR; read-out: S1P4 EC50
# T3 construct: host or cells: CHO-K1
# T3 sequence (O95977 1-384): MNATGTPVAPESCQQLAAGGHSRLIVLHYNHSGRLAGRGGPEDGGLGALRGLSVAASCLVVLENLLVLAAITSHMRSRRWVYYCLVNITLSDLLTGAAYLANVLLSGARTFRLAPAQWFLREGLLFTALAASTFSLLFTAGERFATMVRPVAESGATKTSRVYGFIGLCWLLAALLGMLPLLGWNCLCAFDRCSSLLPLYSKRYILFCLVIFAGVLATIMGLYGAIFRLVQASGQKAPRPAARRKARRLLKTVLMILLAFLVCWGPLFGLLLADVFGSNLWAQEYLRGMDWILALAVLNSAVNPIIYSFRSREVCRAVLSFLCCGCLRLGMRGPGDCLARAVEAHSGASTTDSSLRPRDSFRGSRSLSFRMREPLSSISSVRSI
# Outline: as §1
# T1 sequence (Q9H228 whole entry): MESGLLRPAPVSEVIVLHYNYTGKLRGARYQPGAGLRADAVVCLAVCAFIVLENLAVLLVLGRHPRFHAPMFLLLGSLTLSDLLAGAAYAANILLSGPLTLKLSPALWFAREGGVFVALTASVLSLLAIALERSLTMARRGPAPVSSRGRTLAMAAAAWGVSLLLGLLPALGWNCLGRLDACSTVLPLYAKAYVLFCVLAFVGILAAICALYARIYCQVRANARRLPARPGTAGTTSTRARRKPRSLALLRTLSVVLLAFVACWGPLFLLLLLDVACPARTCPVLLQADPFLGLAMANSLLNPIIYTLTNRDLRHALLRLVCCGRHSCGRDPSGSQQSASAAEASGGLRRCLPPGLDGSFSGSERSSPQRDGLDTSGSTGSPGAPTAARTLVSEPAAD
EC50 [1] [nM],EC50 [2] [nM],EC50 [3] [nM],SMILES
< 10,< 1000,< 1000,"CCc1cccc(Cl)c1COc1ccc2c(c1)CCC(NCC1(C(=O)O)CC1)C2 (stereo not drawn) [Compound 76, 1-(((6-((2-chloro-6-ethylbenzyl)oxy)-1,2,3,4-tetrahydronaphthalen-2-yl)amino)methyl)cyclopropanecarboxylic acid]"
1000 to 10000,> 1000,> 1000,"O=C(O)CCOC1CCc2cc(OCc3cccc(OC(F)(F)F)c3)ccc2C1 (stereo not drawn) [Compound 184, 3-[6-[[3-(trifluoromethoxy)phenyl]methoxy]tetralin-2-yl]oxypropanoic acid]"
1000 to 10000,> 1000,> 1000,"O=C(O)COC1CCc2cc(OCc3cccc(F)c3)ccc2C1 (stereo not drawn) [Compound 198, 2-[6-[(3-fluorophenyl)methoxy]tetralin-2-yl]oxyacetic acid]"
1000 to 10000,> 1000,< 1000,"O=C(O)C1CCN(C2COc3cc(OCc4ccccc4)ccc3C2)CC1 (stereo not drawn) [Compound 112, 1-(7-benzyloxychroman-3-yl)piperidine-4-carboxylic acid]"
100 to 1000,> 1000,> 1000,"O=C(O)COC1CCc2cc(OCc3cc(F)ccc3F)ccc2C1 (stereo not drawn) [Compound 163, 2-[6-[(2,5-difluorophenyl)methoxy]tetralin-2-yl]oxyacetic acid]"
1000 to 10000,> 1000,> 1000,"O=C(O)C1CN(C2COc3cc(OCCc4ccccc4)ccc3C2)C1 (stereo not drawn) [Compound 226, 1-(7-phenethyloxychroman-3-yl)azetidine-3-carboxylic acid]"
100 to 1000,> 1000,> 1000,"CCc1cccc(Cl)c1COc1ccc2c(c1)CCC(N1CC(C(=O)N(C)OC)C1)C2 (stereo not drawn) [Compound 217, 1-[6-[(2-chloro-6-ethyl-phenyl)methoxy]tetralin-2-yl]-N-methoxy-N-methyl-azetidine-3-carboxamide]"
100 to 1000,> 1000,< 1000,"Cc1cccc(C#Cc2ccc3c(c2)OCC(N2CC(C(=O)O)C2)C3)c1 (stereo not drawn) [Compound 43, 1-(7-((3-(methyl)phenyl)ethynyl)chroman-3-yl)azetidine-3-carboxylic acid]"
1000 to 10000,> 1000,> 1000,"O=C(O)COC1CCc2cc(OCc3ccc(Cl)cc3)ccc2C1 (stereo not drawn) [Compound 209, 2-[6-[(4-chlorophenyl)methoxy]tetralin-2-yl]oxyacetic acid]"
10 to 100,> 1000,> 1000,"O=C(O)C1CN(C2COc3cc(OCc4ccccc4C(F)(F)F)ccc3C2)C1 (stereo not drawn) [Compound 62, 1-(7-((2-(trifluoromethyl)benzyl)oxy)chroman-3-yl)azetidine-3-carboxylic acid]"
1000 to 10000,> 1000,> 1000,"O=C(O)C1CN(C2COc3cc(OCc4ccc(C(F)(F)F)cc4F)ccc3C2)C1 (stereo not drawn) [Compound 106, 1-[7-[[2-fluoro-4-(trifluoromethyl)phenyl]methoxy]chroman-3-yl]azetidine-3-carboxylic acid]"
< 10,> 1000,< 1000,"CCc1cccc(Cl)c1COc1ccc2c(c1)OCC(N1CCC(C(=O)O)C1)C2 (stereo not drawn) [Compound 128, 1-(7-((2-chloro-6-ethylbenzyl)oxy)chroman-3-yl)pyrrolidine-3-carboxylic acid]"
1000 to 10000,> 1000,> 1000,"O=C(O)COC1CCc2cc(OCc3ccc(F)cc3)ccc2C1 (stereo not drawn) [Compound 214, 2-[6-[(4-fluorophenyl)methoxy]tetralin-2-yl]oxyacetic acid]"
1000 to 10000,> 1000,> 1000,"O=C(O)COC1CCc2cc(OCc3ccc(Cl)cc3Cl)ccc2C1 (stereo not drawn) [Compound 162, 2-[6-[(2,4-dichlorophenyl)methoxy]tetralin-2-yl]oxyacetic acid]"
100 to 1000,> 1000,> 1000,"O=C(O)COC1CCc2cc(OCc3ccccc3C(F)(F)F)ccc2C1 (stereo not drawn) [Compound 196, 2-[6-[[2-(trifluoromethyl)phenyl]methoxy]tetralin-2-yl]oxyacetic acid]"
< 10,> 1000,< 1000,"CCc1cccc(Cl)c1COc1ccc2c(c1)OCC(N(C)CC(=O)O)C2 (stereo not drawn) [Compound 124, N-(7-((2-chloro-6-ethylbenzyl)oxy)chroman-3-yl)-N-methylglycine]"
< 10,> 1000,< 1000,"CCc1cccc(F)c1COc1ccc2c(c1)OCC(N1CC(C(=O)O)C1)C2 (single isomer, unassigned) [Compound 147, 1-(7-((2-ethyl-6-fluorobenzyl)oxy)chroman-3-yl)azetidine-3-carboxylic acid]"
< 10,> 1000,< 1000,"CCc1cccc(F)c1COc1ccc2c(c1)OCC(NC1(CC(=O)O)CCCC1)C2 (stereo not drawn) [Compound 117, 2-(1-((7-((2-ethyl-6-fluorobenzyl)oxy)chroman-3-yl)amino)cyclopentyl) acetic acid]"
100 to 1000,> 1000,> 1000,"COc1ccc(F)cc1COc1ccc2c(c1)CCC(OCC(=O)O)C2 (stereo not drawn) [Compound 166, 2-[6-[(5-fluoro-2-methoxy-phenyl)methoxy]tetralin-2-yl]oxyacetic acid]"
100 to 1000,> 1000,> 1000,"O=C(O)C1CN(C2COc3cc(C#CC4CCCCC4)ccc3C2)C1 (stereo not drawn) [Compound 39, 1-(7-(cyclohexylethynyl)chroman-3-yl)azetidine-3-carboxylic acid]"
1000 to 10000,> 1000,> 1000,"COc1ccccc1COc1ccc2c(c1)CCC(OCC(=O)O)C2 (stereo not drawn) [Compound 170, 2-[6-[(2-methoxyphenyl)methoxy]tetralin-2-yl]oxyacetic acid]"
100 to 1000,> 1000,< 1000,"CCc1cccc(Cl)c1COc1ccc2c(c1)OCC(NC13CC(C(=O)O)(C1)C3)C2 (stereo not drawn) [Compound 121, 3-((7-((2-chloro-6-ethylbenzyl)oxy)chroman-3-yl)amino)bicyclo[1.1.1]pentane-1-carboxylic acid]"
10 to 100,> 1000,> 1000,"O=C(O)C1CN(C2COc3cc(OCc4c(Cl)cccc4Cl)ccc3C2)C1 (single isomer, unassigned) [Compound 144, 1-(7-((2,6-dichlorobenzyl)oxy)chroman-3-yl)azetidine-3-carboxylic acid]"
1000 to 10000,> 1000,> 1000,"O=C(O)COC1CCc2cc(OCc3ccc(F)c(F)c3)ccc2C1 (stereo not drawn) [Compound 212, 2-[6-[(3,4-difluorophenyl)methoxy]tetralin-2-yl]oxyacetic acid]"
1000 to 10000,> 1000,> 1000,"O=C(O)COC1CCc2cc(OCc3ccc(OC(F)(F)F)cc3)ccc2C1 (stereo not drawn) [Compound 203, 2-[6-[[4-(trifluoromethoxy)phenyl]methoxy]tetralin-2-yl]oxyacetic acid]"
< 10,> 1000,> 1000,"O=C(O)CNC1COc2cc(-c3ccc(OCc4ccccc4)cc3)ccc2C1 (stereo not drawn) [Compound 237, 2-((7-(4-(benzyloxy)phenyl)chroman-3-yl)amino)acetic acid]"
